biological target: Human Jak2 kinase domain (Homo sapiens (Human), UniProt O60674); assay: Jak2 inhibition assay (Omnia kinase); type: biochemical; conditions: read-out: Jak2 Enzyme (% inhibition at 1000 nM), Table 1; at 1000 nM test compound
Description: The assays described in Examples C, D, E and F for the determination of JAK1, JAK2, JAK3 and Tyk2 kinase activity, respectively, utilized the Omnia® Kinase fluorescence peptide substrate-based technology (Invitrogen). The specific components of the assay mixture are described in Examples C, D and E. […] Two-μL aliquots of these were transferred to a fresh plate for a ten-fold intermediate dilution with assay buffer. […] Human Jak2 kinase domain comprising amino acids 808-1132 was purchased from Invitrogen Corporation, Carlsbad, Calif.

Chain of Human Jak2 kinase domain (O60674 808-1132): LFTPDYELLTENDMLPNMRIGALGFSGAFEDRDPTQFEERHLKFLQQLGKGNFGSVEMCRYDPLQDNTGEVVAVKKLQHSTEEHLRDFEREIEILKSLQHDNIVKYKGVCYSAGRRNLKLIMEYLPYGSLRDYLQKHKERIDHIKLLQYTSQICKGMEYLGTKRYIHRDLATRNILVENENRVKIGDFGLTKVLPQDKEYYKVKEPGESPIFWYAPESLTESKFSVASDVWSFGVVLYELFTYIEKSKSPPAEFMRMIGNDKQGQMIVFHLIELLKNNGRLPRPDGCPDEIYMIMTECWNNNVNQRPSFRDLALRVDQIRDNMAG

Row | SMILES | inhibition at 1 µM
1 | CC1(O)CCC(NC(=O)c2cnn3ccc(N4CCC[C@@H]4c4cc(F)ccc4F)nc23)CC1 (stereo partly drawn) [Example 51, 5-((R)-2-(2,5-difluorophenyl)pyrrolidin-1-yl)-N-(4-hydroxy-4-methylcyclohexyl)pyrazolo[1,5-a]pyrimidine-3-carboxamide] | 82.5%
2 | C[C@@H](NC(=O)c1cnn2ccc(N3CCC[C@@H]3c3cncc(F)c3)nc12)C(F)(F)F [Example 129, 5-((R)-2-(5-fluoropyridin-3-yl)pyrrolidin-1-yl)-N-((R)-1,1,1-trifluoropropan-2-yl)pyrazolo[1,5-a]pyrimidine-3-carboxamide] | 25.2%
3 | O=C(N[C@@H]1CCC[C@H]1O)c1cnn2ccc(N3CCC[C@@H]3c3cncc(F)c3)nc12 [Example 133, 5-((R)-2-(5-fluoropyridin-3-yl)pyrrolidin-1-yl)-N-((1R,2R)-2-hydroxycyclopentyl)pyrazolo[1,5-a]pyrimidine-3-carboxamide] | 14.4%
4 | CCc1ncc(F)cc1[C@H]1CCCN1c1ccn2ncc(C(=O)N[C@H]3CC[C@H](O)C3)c2n1 [Example 200, 5-((R)-2-(2-ethyl-5-fluoropyridin-3-yl)pyrrolidin-1-yl)-N-((1S,3S)-3-hydroxycyclopentyl)pyrazolo [1,5-a]pyrimidine-3-carboxamide] | 12.5%

Reference: patent US10758542B2, “Substituted pyrazolo[l,5-a]pyrimidine compounds as Trk kinase inhibitors” (Array BioPharma Inc., priority 2009, dated 2020)
